Assay results reported in patent US11370794B2, “Toll-like receptor antagonist compounds and methods of use” (Dynavax Technologies Corporation, priority 2016, dated 2022).

Target: T1, mouse TLR9 (Mus musculus, UniProt Q9EQU3)
T1 construct: Balb/c mice (Charles River); host or cells: Balb/c mice, in vivo
T1 sequence (Q9EQU3 26-1032): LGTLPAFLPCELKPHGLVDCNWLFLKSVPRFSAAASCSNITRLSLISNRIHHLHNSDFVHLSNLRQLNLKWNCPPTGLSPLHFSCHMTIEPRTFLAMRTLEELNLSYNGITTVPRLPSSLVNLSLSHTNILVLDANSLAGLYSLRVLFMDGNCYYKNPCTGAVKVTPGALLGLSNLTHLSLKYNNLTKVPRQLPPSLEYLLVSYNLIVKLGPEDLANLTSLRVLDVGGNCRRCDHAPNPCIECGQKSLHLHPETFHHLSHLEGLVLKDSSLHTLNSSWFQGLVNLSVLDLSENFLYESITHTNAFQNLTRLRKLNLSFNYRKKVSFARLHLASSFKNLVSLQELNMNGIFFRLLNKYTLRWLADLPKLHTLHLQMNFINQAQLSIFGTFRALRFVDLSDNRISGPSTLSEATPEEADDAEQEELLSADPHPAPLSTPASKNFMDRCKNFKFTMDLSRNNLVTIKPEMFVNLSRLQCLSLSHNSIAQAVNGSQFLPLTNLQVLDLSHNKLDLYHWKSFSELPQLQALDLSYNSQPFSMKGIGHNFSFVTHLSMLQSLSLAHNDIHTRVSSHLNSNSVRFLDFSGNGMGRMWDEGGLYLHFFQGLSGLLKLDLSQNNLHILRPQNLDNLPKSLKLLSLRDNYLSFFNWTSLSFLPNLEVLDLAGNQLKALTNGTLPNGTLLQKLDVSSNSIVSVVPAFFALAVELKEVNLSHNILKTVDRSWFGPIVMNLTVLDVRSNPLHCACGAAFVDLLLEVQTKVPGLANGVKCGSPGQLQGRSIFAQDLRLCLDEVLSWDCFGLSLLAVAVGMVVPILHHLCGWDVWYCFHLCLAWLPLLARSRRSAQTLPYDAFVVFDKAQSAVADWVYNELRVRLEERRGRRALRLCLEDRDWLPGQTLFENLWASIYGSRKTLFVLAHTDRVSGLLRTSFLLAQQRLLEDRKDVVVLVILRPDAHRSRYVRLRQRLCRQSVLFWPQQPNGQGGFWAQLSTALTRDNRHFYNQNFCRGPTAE
Assay: Inhibition of mouse TLR9 in mouse acute challenge model (serum IL-12)
Assay type: in vivo
Conditions: 5 mg/Kg, intravenous or intra-peritoneal, serum IL-12 four hours after CpG DNA agonist
Protocol: Example B4—Inhibition of Mouse TLR9 in Mouse Acute Challenge Model
When administered a CpG-containing DNA oligonucleotide, mice respond in an acute manner with release of cytokines into the peripheral blood within 6 hours. The addition of an inhibitor against TLR9 will attenuate the response to the DNA oligonucleotide agonist, which can be measured through a reduction in serum cytokines.
Balb/c mice (Charles River). TLR9 agonist 1018 ISS, CpG-containing DNA oligonucleotide. Mouse interleukin (IL)-12p40 ELISA kit (BD Pharmingen Cat. No. 551219 and 554476).
Mice were injected by the intravenous or intra-peritoneal routes with test compound at 5 mg/kg. Following injection of test compound, mice were injected with a TLR9 agonist (a CpG-containing DNA oligonucleotide) by the intra-peritoneal route to a final dose of approximately 2.5 mg/kg. Four hours following administration of the DNA oligonucleotide, blood was collected and processed to serum. The serum was tested for the presence of IL-12 using an ELISA kit. The amount of IL-12 produced is a reflection of the amount of TLR9-dependent receptor activity.

SMILES: Cc1ccc(-n2nc3c(N4CCC(C(=O)NCCCN(C)C)CC4)nnc(C)c3c2C)cc1 [Compound No. 5, 1-(3,4-dimethyl-2-(p-tolyl)-2H-pyrazolo[3,4-d]pyridazin-7-yl)-N-(3-(dimethylamino)propyl)piperidine-4-carboxamide]
- inhibition of TLR9 activity in mice (FIG. 1): inhibition of TLR9 activity
